≈ marks a conversion by molar mass, not a printed value.

Common to all, as to type: cell-based
In experiment [1] the test system is S. flexneri ATCC 25875. Nature of the experiment: microbe, parasite or virus in culture. The settings on record: Shigella flexneri, ATCC25875; growth (A625) after 20 h at 35° C.; read-out: minimum inhibitory concentration. On the procedure: (§1) Cells (5×10^5 CFU/mL) and antibiotics were prepared in cation-adjusted Mueller Hinton broth according to CLSI methodology. […] The same Shigella inoculum was grown for 5 h at 35° C. in the presence of antibiotics, infected with Shfl::luxAB, and bioluminescence assayed after 20 min.
(§2) Therefore, the ability of Shfl25875::luxAB to confer bioluminescence signal to Shigella spp. in the presence of antibiotics was compared to the standard CLSI broth microdilution method. […] Cells were incubated with a range of antibiotic concentrations in microtiter plates, incubated at 35° C., and assessed for growth (A625) after 20 h as per the CLSI protocol, or bioluminescence following infection by Shfl25875::luxAB.

Experiment [2] relates to S. flexneri ATCC 25875. Nature of the experiment: Reporter phage (Shfl25875::luxAB) bioluminescence antibiotic susceptibility assay. The settings on record: 5 h growth with antibiotic, infection with reporter phage, read after 20 min. The procedure: as §1, §2
In another experiment the test system is E. coli ATCC 25922. Nature of the experiment: microbe, parasite or virus in culture. The settings on record: Escherichia coli, ATCC25922; cation-adjusted Mueller Hinton broth, 35° C., 20 h; within the acceptable range. On the procedure:
as §1

Consider `CC1(C)S[C@@H]2[C@H](NC(=O)[C@H](N)c3ccccc3)C(=O)N2[C@H]1C(=O)O` [ampicillin], for which the MIC with S. flexneri ATCC 25875 [1] amounted to 1 µg/mL (≈ 2.86 µM); in the experiment on E. coli ATCC 25922 it was 2 µg/mL (≈ 5.72 µM). Besides, the “Bioluminescence at antibiotic concentrations at the minimum inhibitory concentration or higher” value in the experiment on S. flexneri ATCC 25875 [2] is on record as “at or close to background”.
